pIC50: −log10 of the molar value. Counter-ions that a name gives are not always drawn. Like-named read-outs stand apart in the source and are kept apart here.

The target of test [1] is T1, squalene synthetase (Rattus norvegicus, UniProt Q02769).
T1 construct: from tissue; host or cells: liver of male SD rats (microsome fraction)
T1 sequence (Q02769 1-416): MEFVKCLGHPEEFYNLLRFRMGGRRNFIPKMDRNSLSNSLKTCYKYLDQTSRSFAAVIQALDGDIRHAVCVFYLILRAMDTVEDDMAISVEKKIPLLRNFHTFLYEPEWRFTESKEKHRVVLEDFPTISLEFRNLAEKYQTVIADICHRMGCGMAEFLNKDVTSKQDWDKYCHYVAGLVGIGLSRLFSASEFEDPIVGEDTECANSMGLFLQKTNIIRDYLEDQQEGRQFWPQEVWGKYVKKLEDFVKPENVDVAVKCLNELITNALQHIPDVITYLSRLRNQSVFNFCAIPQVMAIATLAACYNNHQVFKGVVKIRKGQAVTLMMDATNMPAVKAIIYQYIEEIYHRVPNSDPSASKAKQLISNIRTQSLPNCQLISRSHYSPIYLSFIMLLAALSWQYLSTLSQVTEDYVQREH
Description: Squalene synthetase inhibitory activity, rat enzyme (rat liver microsome fraction). Format: biochemical. The following applies: 5 μM [1-3H]farnesylpyrophosphoric acid, pH 7.4, 37° C., 45 minutes. The protocol:
(§1) Squalene synthetase inhibitory activity and cholesterol biosynthesis inhibitory activity of the compounds used in the present invention were determined by the following method.
(§2) Determination of squalene synthetase inhibitory activity
(§3) The squalene synthetase inhibitory activity was determined as follows by using the enzyme solutions shown in Experiments 1 and 2 below.
(§4) Each enzyme solution (Protein: 0.8 μg) prepared in Experiments 1 and 2 was added to a solution (total amount: 50 μl) containing 5 μM[1-^3 H]farnesylpyrophosphoric acid (Specific activity 25 μCi/μmole), 1 mM NADPH, 5 mM MgCl2, 6 mM glutathione, 100 mM potassium phosphate buffer (pH 7.4) and a drug to be tested (which was added as a solution thereof in water or DMSO). The mixture was allowed to react at 37° C. for 45 minutes. A mixture (150 μl) of chloroform and methanol (1:2) was added to stop the reaction. Then, chloroform (50 μl) and 3N sodium hydroxide solution (50 μl) were added. The chloroform layer (under layer, 50 μl) containing the reaction products in which the major component was squalene was mixed with toluene liquid scintillator (3 ml). The radioactivity was measured with a liquid scintillation counter.
(§5) The squalene synthetase inhibitory activity is indicated by the concentration (IC50, molarity(M)) which inhibits the radioactivity incorporated into the chloroform layer by 50%.
Preparation of rat enzyme
SD-Male rats (6 weeks old) were bled to death followed by removal of liver. The liver (ca. 10 g) was washed with ice-cooled physiological saline, homogenized in an ice-cooled buffer solution (15 ml) [100 mM potassium phosphate (pH 7.4), 15 mM nicotinamide, 2 mM MgCl2 ] and centrifuged at 10,000×g for 20 minutes (4° C.). The resulting supernatant was further centrifuged at 105,000×g for 90 minutes (4° C.). Then, the deposit was suspended in an ice-cooled 100 mM potassium phosphate buffer solution (pH 7.4) and centrifuged at 105,000×g for 90 minutes (4° C.) again. The deposit (microsome fraction) thus obtained was suspended in an ice-cooled 100 mM potassium phosphate buffer solution (pH 7.4) so that the protein concentration became about 40 mg/ml (measured with BCA Protein Assay Kit (Pias)), and the suspension was used as the enzyme solution.

The target of test [2] is T2, squalene synthetase (Homo sapiens, UniProt P37268).
T2 construct: From the resulting sonicate, microsome fraction was obtained according to the same manner as that described in Experiment 1; endogenous in cells; host or cells: HepG2 human hepatoma cells (microsome fraction)
T2 sequence (P37268 1-417): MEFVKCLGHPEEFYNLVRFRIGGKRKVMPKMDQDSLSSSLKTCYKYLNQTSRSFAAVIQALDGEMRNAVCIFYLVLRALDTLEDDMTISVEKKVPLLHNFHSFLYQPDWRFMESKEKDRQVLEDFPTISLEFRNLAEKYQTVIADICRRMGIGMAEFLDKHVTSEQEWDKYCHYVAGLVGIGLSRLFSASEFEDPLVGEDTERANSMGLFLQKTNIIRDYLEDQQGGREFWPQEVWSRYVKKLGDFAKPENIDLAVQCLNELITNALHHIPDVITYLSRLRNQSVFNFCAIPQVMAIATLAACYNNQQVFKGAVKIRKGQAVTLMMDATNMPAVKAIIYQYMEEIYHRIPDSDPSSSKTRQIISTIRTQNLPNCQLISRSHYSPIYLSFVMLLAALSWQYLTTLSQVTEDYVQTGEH
Description: Squalene synthetase inhibitory activity, human enzyme (HepG2 microsome fraction). Format: biochemical. On the procedure:
as §1, §2, §3, §4, §5
Preparation of human enzyme
Cultivation was carried out on Dulbecco modified Eagle medium containing 10% bovine fetal serum in the presence of 5% CO2 at 37° C. The human hepatoma cells HepG2 (ca. 1×10^9 cells) were suspended in an ice-cooled buffer solution (10 ml) [100 mM potassium phosphate (pH 7.4), 30 mM nicotinamide, 2.5 mM MgCl2 ], and the cells were crushed by ultrasonication (30 seconds, twice). From the resulting sonicate, microsome fraction was obtained according to the same manner as that described in Experiment 1. This microsome fraction was suspended in an ice-cooled 100 mM potassium phosphate buffer solution (pH 7.4) so that the protein concentration became about 4 mg/ml, and this suspension was used as the enzyme liquid.

Where [3] appears, read: read-out: IC50, squalene synthetase inhibitory activity, Rat enzyme.
Setting [4] is: human hepatoma HepG2 microsome fraction, 5 μM [1-3H]farnesylpyrophosphoric acid, pH 7.4, 37° C., 45 minutes, read-out: IC50, squalene synthetase inhibitory activity, Human enzyme.
Setting [5] is: IC50, squalene synthetase inhibitory activity, Rat enzyme.

On to `CCOP(=O)(OCC)C(NCCCCCSC1CCCCC1)P(=O)(OCC)OCC` [compound 15], for which the pIC50 in test [1] (setting [3]) is 5.39. In the case of `CC(C)(C)SCCCCNC(P(=O)(O)O)P(=O)(O)O` [compound 5], the pIC50 was 5.04 in test [2] (setting [4]) and 6.12 in test [1] (setting [3]). With `O=P(O)(O)C(NCCCCCCCCCSc1ncccn1)P(=O)(O)O` [compound 100], the pIC50 in test [2] (setting [4]) and in test [1] (setting [3]) was 7.92 in each case. As to `O=P(O)(O)C(NCCCCCCCCCCSc1ncccn1)P(=O)(O)O` [compound 101], the figures for the pIC50 in test [2] (setting [4]) and in test [1] (setting [3]) were 8.21 and 8.11, respectively. Consider `CCOP(=O)(OCC)C(NCCCCCCSc1ccc(Cl)cc1)P(=O)(OCC)OCC` [compound 28], for which the figures for the pIC50 in test [2] (setting [4]) and in test [1] (setting [3]) were 5.49 and 5.21, respectively.

As for `O=P(O)(O)C(NCCCC[S+]([O-])c1ccccc1)P(=O)(O)O` (stereo not drawn) [compound 9], the pIC50 in test [2] (setting [4]) was 8.20; in test [1] (setting [3]), 8.05.

Regarding `O=P(O)(O)C(NCCCCCC[S+]([O-])c1ccccc1)P(=O)(O)O` (stereo not drawn) [compound 60, disodium 6-(phenylsulfinyl)hexylaminomethylenebisphosphonate], the pIC50 is 8.51 in test [2] (setting [4]) and 8.22 in test [1] (setting [3]). The like results for `CCSCCCCCNC(P(=O)(O)O)P(=O)(O)O` [compound 8] were, in that order, 6.96 and 7.17. Take `CC(C)CCCC(C)CCCC(C)CCC(P(=O)(O)O)P(=O)(O)O` (stereo not drawn) [Compound No. 108, disodium 4,8,12-trimethyltridecylidene-1,1-bisphosphonate]: the pIC50 was 7.36 in test [2] (setting [4]) and 7.64 in test [1] (setting [3]).

For the compound `CCOP(=O)(OCC)C(NCCSCCc1ccccc1)P(=O)(OCC)OCC` [compound 18], the negative-log IC50 (pIC50) in test [2] (setting [4]) was 6.21; in test [1] (setting [3]), 6.10. As to `O=P(O)(O)C(O)(CCCCCSc1ccccn1)P(=O)(O)O` [Compound No. 109, trisodium 1-hydroxy-6-(2-pyridylthio)hexane-1,1-bisphosphonate], the pIC50 in test [2] (setting [4]) is 5.24; in test [1] (setting [3]) it was 5.89. For `CC(C)=CCC/C(C)=C/CNC(P(=O)(O)O)P(=O)(O)O` [compound 86], in that order: 7.46 and 7.57.

As to `CCOP(=O)(O)C(NCCCCCCSc1ccccc1)P(=O)(O)O` (stereo not drawn) [Compound No. 113, 6-(phenylthio)hexylaminomethylenebisphosphonic acid monoethyl ester monosodium salt], the pIC50 in test [2] was 8.01; in test [1] (setting [5]), 7.82. Consider `O=P(O)(O)C(NCCCCCCSc1nc2ccccc2s1)P(=O)(O)O` [compound 83], for which the pIC50 in test [2] (setting [4]) is 8.08; in test [1] (setting [3]), 8.37.

In the case of `O=P(O)(O)C(NCCCCCOc1ccccc1)P(=O)(O)O` [compound 10], the pIC50 in test [2] (setting [4]) is 8.28; in test [1] (setting [3]), 8.09. Take `O=P(O)(O)C(NCCCCSc1ccccn1)P(=O)(O)O` [compound 2]: the pIC50 in test [2] (setting [4]) is 6.74; in test [1] (setting [3]), 7.01. Consider `O=P(O)(O)C(NCCCSCc1ccccc1)P(=O)(O)O` [compound 17], for which the pIC50 is 7.92 in test [2] (setting [4]) and 7.74 in test [1] (setting [3]). For the compound `O=P(O)(O)C(CCCc1ccccc1)P(=O)(O)O` [compound 21, 4-phenylbutylidene-1,1-bisphosphonic acid], in test [1] (setting [3]), the pIC50 is 5.26.

As to “(E,E)-farnesylaminomethylenebisphosphonic acid diethyl ester disodium salt [Compound No. 112]”, the pIC50 in test [2] (setting [4]) is 5.09; in test [1] (setting [3]), 5.48. Consider `O=P(O)(O)C(NCCCCCC[S+]([O-])c1ccc2ccccc2c1)P(=O)(O)O` (stereo not drawn) [compound 66], for which the pIC50 in test [2] (setting [4]) is 8.40; in test [1] (setting [3]), 8.33.

`O=P(O)(O)C(NCCCCCCCCCSc1ncccn1)P(=O)(O)O` [compound 79]: the pIC50 in test [2] (setting [4]) was 8.15; in test [1] (setting [3]), 8.06. As to `O=P(O)(O)C(NCCCCCSC1CCCCC1)P(=O)(O)O` [compound 7], the values for the pIC50 in test [2] (setting [4]) and in test [1] (setting [3]) were 7.74 and 7.72, respectively. Take `O=P(O)(O)C(NCCCCCCSc1nnc2ccccn12)P(=O)(O)O` [compound 81]: the pIC50 in test [2] (setting [4]) is 5.74; in test [1] (setting [3]), 6.70.

As to `CC(C)=CCC/C(C)=C/CC/C(C)=C/CC(P(=O)(O)O)P(=O)(O)O` [compound 106, trisodium (E,E)-farnesylmethylenebisphosphonate], the pIC50 in test [2] (setting [4]) is 6.96; in test [1] (setting [3]), 7.21. Take `O=P(O)(O)C(NCCCCCCSc1ccccc1)P(=O)(O)O` [compound 11]: the results for the pIC50 in test [2] (setting [4]) and in test [1] (setting [3]) were 8.82 and 8.44, respectively. On to `O=P(O)(O)C(NCCCCCCCCCCCCSc1ccccc1)P(=O)(O)O` [compound 89, monosodium 12-(phenylthio)dodecylaminomethylenebisphosphonate], for which, in test [1] (setting [3]), the pIC50 was 8.09. With `CCSCCCCNC(P(=O)(O)O)P(=O)(O)O` [compound 4], the pIC50 in test [2] (setting [4]) was 5.89; in test [1] (setting [3]) it was 6.43.

Take `O=P(O)(O)C(NCCCCNc1ccccc1)P(=O)(O)O` [Compound No. 110, 4-(phenylamino)butylaminomethylene-1,1-bisphosphonic acid hydrochloride]: the figures for the pIC50 in test [2] (setting [4]) and in test [1] (setting [3]) were 7.21 and 7.36, respectively. For `CC(C)CCCC(C)CCCC(C)CCNC(P(=O)(O)O)P(=O)(O)O` (stereo not drawn) [compound 63], in that order: 8.66 and 8.37. For `O=P(O)(O)C(NCCCCCCCCCCSc1ccccc1)P(=O)(O)O` [compound 61], in that order: 9.33 and 9.24.

With `CCOP(=O)(OCC)C(NCCCCCCSc1ccccc1)P(=O)(OCC)OCC` [compound 19], the results for the pIC50 in test [2] (setting [4]) and in test [1] (setting [3]) were 5.16 and 5.12, respectively.

As to `CCOP(=O)(O)C(NC/C=C(\C)CC/C=C(\C)CCC=C(C)C)P(=O)(O)O` (stereo not drawn) [Compound No. 111, (E,E)-farnesylaminomethylenebisphosphonic acid monoethyl ester monosodium salt], the pIC50 in test [2] was 7.66; in test [1] (setting [5]), 7.72. Take `CC(C)=CCC/C(C)=C/CC/C(C)=C/CNC(P(=O)(O)O)P(=O)(O)O` [compound 99]: the pIC50 was 8.17 in test [2] (setting [4]) and 8.16 in test [1] (setting [3]).

For the compound `O=P(O)(O)C(NCCCCCSc1ccccc1)P(=O)(O)O` [compound 88], the pIC50 in test [1] (setting [3]) is 7.89. `O=P(O)(O)C(NCCCCCSc1ccccc1)P(=O)(O)O` [compound 6]: the pIC50 in test [1] (setting [3]) was 8.24. With `O=P(O)(O)C(NCCCCS(=O)(=O)c1ccccc1)P(=O)(O)O` [compound 12], in test [1] (setting [3]), the pIC50 is 5.19.

The record behind these values is US5624917A, “Method of inhibiting squalene synthetase” (Takeda Chemical Industries, Ltd., priority 1991, dated 1997).
